Among the data in patent US11339446B2, “Biomarker for measurement of response and prognosis of triple-negative breast cancer to anticancer agent” (SEOUL NATIONAL UNIVERSITY R&DB FOUNDATION, priority 2017, dated 2022) are Survival fraction and IC50 values, retold here.

What all share (assay type): cell-based
Experiment [1] deals with HCC38 cell line. The experiment is described as follows: CellTiter-Glo cell viability assay after docetaxel, HCC38. How it is done: (§1) MDA-MB-231, DU4475, MDA-MB-436, and MDA-MB-157 cell lines were purchased from the ATCC. MDA-MB-468, HCC1937, HS578T, and HCC38 cell lines were obtained from the Korea Cell Bank. MDA-MB-157 cell line was cultured in a Leibovitz's L15 culture medium supplemented with 10% fetal bovine serum. The MDA-MB-436 cell line was cultured in a Leibovitz's L15 culture medium supplemented with 10% fetal bovine serum and 0.026 units/ml units insulin. The MDA-MB-231 cell line, the MDA-MB-468 cell line, and the HS578T cell line were each cultured in a DMEM culture medium supplemented with 10% fetal bovine serum in 5% CO2. The remaining cell lines were each cultured in a RPMI-1640 culture medium supplemented with 10% fetal bovine serum in 5% CO2.
(§2) In the present disclosure, docetaxel was used to find genes related to resistance to taxane-based neoadjuvant chemotherapy (NAC). Docetaxel was purchased at Sigma-Aldrich, and then, dissolved according to the instructions of the manufacturer. The cell lines were collected using trypsin treatment, counted with a hemocytometer, and plated for 14 hours at a density of 3,000 cells/well in a 96-well plate. Afterwards, the solvent was replaced with docetaxel at different concentrations (e.g., 0 nM, 0.01 nM, 0.1 nM, 1 nM, 10 nM, and 100 nM), 48 hours after exposure to docetaxel, cell viability experiments were performed using the CellTiter-Glo Luminescent Cell Viability Assay according to the protocol of the manufacture. The CellTiter-Glo Luminescent Cell Viability Assay is a method of determining the number of cells present in a culture medium depending on the amount of ATP in a culture medium. In summary, the same amount of 100 μl of CellTiter-Glo assay reagents were added to each well, incubated for 10 minutes at room temperature, and then, measured according to the luminometry. The experiment was repeated twice, and the 50% inhibitory concentration of each cell line was measured by non-linear regression analysis.

Experiment [2] relates to DU4475 cell line. The experiment is described as follows: CellTiter-Glo cell viability assay after docetaxel, DU4475. How it is done: as §1, §2
The test system of experiment [3] is MDA-MB-436 cell line. Briefly: CellTiter-Glo cell viability assay after docetaxel, MDA-MB-436. How it is done:
as §1, §2

Experiment [4] concerns MDA-MB-231 cell line. Briefly: CellTiter-Glo cell viability assay after docetaxel, MDA-MB-231. How it is done:
as §1, §2

In experiment [5] the test system is MDA-MB-468 cell line. Briefly: CellTiter-Glo cell viability assay after docetaxel, MDA-MB-468. How it is done: as §1, §2
Experiment [6] has as its system MDA-MB-157 cell line. Briefly: CellTiter-Glo cell viability assay after docetaxel, MDA-MB-157. As to conditions: MDA-MB-15T. How it is done:
as §1, §2

Experiment [7] concerns HS578T cell line. Briefly: CellTiter-Glo cell viability assay after docetaxel, HS578T. How it is done: as §1, §2
In experiment [8] the test system is HCC1937 cell line. The experiment is described as follows: CellTiter-Glo cell viability assay after docetaxel, HCC1937. How it is done: as §1, §2

Structures are written as SMILES. Where only a bound is given, the exact number is not on record here.

In the case of `CC(=O)O[C@@]12CO[C@@H]1C[C@H](O)[C@@]1(C)C(=O)[C@H](O)C3=C(C)[C@@H](OC(=O)[C@H](O)[C@@H](NC(=O)OC(C)(C)C)c4ccccc4)C[C@@](O)([C@@H](OC(=O)c4ccccc4)[C@H]21)C3(C)C` [Docetaxel, docetaxel], the Survival fraction in experiment [1] (HCC38, 50 nM) worked out at 0.57; in experiment [1] (HCC38, 100 nM), 0.53; in experiment [2] (DU4475, 50 nM), 0.37; in experiment [2] (DU4475, 100 nM), 0.27; in experiment [3] (MDA-MB-436, 50 nM), 0.81; in experiment [3] (MDA-MB-436, 100 nM), 0.75. Moreover, the Survival fraction in experiment [4] (MDA-MB-231, 50 nM) was 0.47; in experiment [4] (MDA-MB-231, 100 nM) it was 0.35; in experiment [5] (MDA-MB-468, 50 nM) it was 0.27; in experiment [5] (MDA-MB-468, 100 nM), 0.26; in experiment [6] (50 nM), 0.65; in experiment [6] (100 nM), 0.65. The Survival fraction is listed as 0.32 in experiment [7] (50 nM); 0.29 in experiment [7] (100 nM); 0.76 in experiment [8] (HCC1937, 50 nM); 0.70 in experiment [8] (HCC1937, 100 nM). Further, the IC50 in experiment [1] (Homo sapiens, HCC38, 48 hours exposure) was more than 100 nM; in experiment [2] (Homo sapiens, DU-4475, DU4475, 48 hours exposure) it was 11.6 nM; in experiment [3] (Homo sapiens, MDA-MB-436, 48 hours exposure) it was more than 100 nM; in experiment [4] (Homo sapiens, MDA-MB-231, 48 hours exposure) it was 29.1 nM; in experiment [5] (Homo sapiens, MDA-MB-468, 48 hours exposure), 1.81 nM; in experiment [6] (Homo sapiens, MDA-MB-157, 48 hours exposure), more than 100 nM. Moreover, the half-inhibitory concentration (IC50) in experiment [7] (Homo sapiens, Hs-578T, 48 hours exposure) is 11.1 nM; in experiment [8] (Homo sapiens, HCC1937, 48 hours exposure), more than 100 nM.
